How the values were obtained:
[1] = system: CEM-SS cells; experiment: CEM-SS cell growth, 3H-Tdr pulse label DNA synthesis (Example 23); assay type: cell-based; conditions: Homo sapiens, 48 hours at 37° C., then 3H-Tdr 8 hours
[2] = system: HIV-1; experiment: HIV-1 induced p24 core antigen synthesis in persistently infected monocyte/macrophage (U1) cells; assay type: cell-based; conditions: control 94 = 100
Description: (§1) See C. Perno et al., J. Exp. Med. 168, 1111 (1984).

[3] = in vitro; conditions: human, cem-ss cells
[4] = system: HIV-1; experiment: Plaque assay: inhibition of HIV-1 syncytial plaque formation in CEM-SS cells (Example 15); assay type: cell-based, human immunodeficiency virus type 1 (HIV-1); conditions: for IC50: Human immunodeficiency virus 1, CEM-SS, 120 h, read-out: Inhibitory Concentration50 for HIV-1 Plaque Formation; for Differential Selectivity: ratio IC50 for cytotoxicity / IC50 for HIV1 plaque formation
Description: Anti-HIV1 Activity of Lipid-Nucleoside Conjugates. […] In brief, CEM-SS cell monolayers were infected with HIV-1. […] Plaques were counted at five days after infection. In this assay HIV-1 syncytial plaques are seen as large, multicellular foci (10 to 25 nuclei/syncytium) that appear either brown and granular or clear. Silnce the number of HIV-1 syncytial plaques correlates with reverse transcriptase (RT) and p24 core antigen activity in the HIV-1 infected cell overlay fluids, the syncytial plaque assay can be used to quantify the amount of infectious virus. […] The activity of p24 core antigen induced by HIV-1 infection of CEM-SS cells was measured spectrophotometrically using the commercial Coulter EIA.

[5] = system: HIV-1; experiment: HIV-1 plaque formation in CEM-SS cells (Example 23); assay type: cell-based; conditions: for IC50: read-out: IC50 HIV-1 Plaque Formation; for D.S. (Differential selectivity): average IC50 for CEMSS cell growth / average IC50 for HIV1 plaque formation
Protocol: Anti-HIV1 Activity of Lipid-Nucleoside Conjugates. CEM-SS cells were seeded (50,000 cells/ml RPMI-1640 growth medium) as a monolayer in 96-well dishes, innoculated with 50 to 100 plaque forming units of HIV-1 and overlaid with serial dilutions of lipid-nucleoside conjugate in RPHI-1640 growth medium. Plaques were counted after five days incubation at 37° C. to determine the 50% inhibitory concentration.

[6] = system: HIV-1; experiment: HIV-1 induced RT in persistently infected monocyte/macrophage (U1) cells; assay type: cell-based; conditions: control 79,328 DPM = 100
Description: as §1

[7] = system: HIV-1; experiment: Infectious HIV-1 production (PFU) in persistently infected monocyte/macrophage (U1) cells; assay type: cell-based
Description: as §1

[8] = system: CEM-SS cells; experiment: Cell cytotoxicity (Example 15, Table 1); conditions: conjugate IC50 53.8 μM vs AZT IC50 5.6 μM
[9] = Human immunodeficiency virus 1, 120 h, CEM-SS cells, five days incubation at 37° C.

Structure (SMILES)	CC50 [3] [nM]	IC50 [4] [nM]	Differential Selectivity [4]	other results
CCCCCCCCCCCCCCCCOCC(COP(=O)(O)OP(=O)(O)OCC1OC(n2cc(C)c(=O)[nH]c2=O)CC1N=[N+]=[N-])OCC [A, 3'-Azido-3'-deoxythymidine-5'-diphosphate-D,L-3-hexadecyloxy-2-ethoxypropane]				IC50 [1]: > 100000 nM
Cc1cn([C@H]2C[C@H](N=[N+]=[N-])[C@@H](CO)O2)c(=O)[nH]c1=O [AZT, 3'-azido-3'-deoxythymidine]	5600	4 ± 1		p24 core Ag, Percent of Control [2]: 101% of Control; IC50 ([5]; Human immunodeficiency virus 1, CEM-SS, 120 h): 4 nM; RT DPM, Percent of Control [6]: 90% of Control; inhibition of infectious HIV-1 production [7]: 13%; PFU, Percent of Control ([7]; control 750 PFU = 100): 87% of Control
CCCCCCCCCCCCCCCCCC(=O)NCC(COP(=O)(O)OC[C@H]1O[C@@H](n2cc(C)c(=O)[nH]c2=O)C[C@@H]1N=[N+]=[N-])OCC (some centres unmarked) [A]	53800 ± 7800	30 ± 20		
CCCCCCCCCCCCCCCCCC(=O)NCC(COP(=O)([O-])OC(CC(=O)OC[C@H]1O[C@@H](n2cc(C)c(=O)[nH]c2=O)C[C@@H]1N=[N+]=[N-])C[N+](C)(C)C)OCC (stereo partly drawn) [BB, 3'-Azido-3-deoxythymidine-5'-butyrate-γ-N,N,N-trimethyl-ammonium-β-(1-phospho-2-ethoxy-3octadecanamidopropane)]				IC50 [5, 9]: 40 nM; D.S. (Differential selectivity) [5]: 342
CCCCCCCCCCCCCCCCCC(=O)NCC(COP(=O)(O)OC[C@H]1O[C@@H](n2cc(C)c(=O)[nH]c2=O)C[C@@H]1N=[N+]=[N-])OCC (stereo partly drawn) [Compound A, 3,-azido-3'-deoxythymidine-5'-monophosphate-D,L-3-octadecanamido-2-ethoxypropane]				decrease in cell cytotoxicity compared to AZT [8]: about ten-fold
CCCCCCCCCCCCCCCCOCC(COP(=O)([O-])OC(CC(=O)OC[C@H]1O[C@@H](n2cc(C)c(=O)[nH]c2=O)C[C@@H]1N=[N+]=[N-])C[N+](C)(C)C)OCC (stereo partly drawn) [Compound AA, 3'-Azido-3'-deoxythymidine-5'-butyrate-γ-N,N,N-trimethyl-ammonium-β-(1-phospho-2-ethoxy-3-hexadecyloxypropane)]				IC50 [5, 9]: 4 nM; D.S. (Differential selectivity) [5]: 3375
CCCCCCCCCCCCCCCCOCC(COP(=O)(O)OC[C@H]1O[C@@H](n2cc(C)c(=O)[nH]c2=O)C[C@@H]1N=[N+]=[N-])OCC (stereo partly drawn) [Compound B, 3'-azido-3'deoxythymidine-5'-monophosphate-D,L-3-hexadecyloxy-2-ethoxypropane]	35000 ± 2100	30 ± 20	1167	
CCCCCCCCCCCCCCCCSCC(COP(=O)(O)OC[C@H]1O[C@@H](n2cc(C)c(=O)[nH]c2=O)C[C@@H]1N=[N+]=[N-])OC (stereo partly drawn) [Compound C, 3'azido-3'-deoxythymidine-5'-monophosphate-D,L-3-hexadecylthio-2-methoxypropane]	29200 ± 5700	20 ± 10	1465	
CCCCCCCCCCCCCCCCCC(=O)NCC(COP(=O)(O)OC[C@@H]1CC[C@H](n2cnc3c(=O)[nH]cnc32)O1)OCC (stereo partly drawn) [Compound D, 2,3,-dideoxyinosine-5'-monophosphate-D,L-3-octadecanamido-2-ethoxypropane]	> 100000	1560 ± 800	> 64	
CCCCCCCCCCCCCCCCOCC(CP(=O)(O)OC[C@H]1O[C@@H](n2cc(C)c(=O)[nH]c2=O)C[C@@H]1N=[N+]=[N-])OC (stereo partly drawn) [Compound E, 3'-Azido-3'-deoxythymidine-5'-phosphono-D,L-3-hexadecyloxy-2-methoxypropane]	25200 ± 1100	20 ± 10	1260	
CCCCCCCCCCCCCCCCCC(=O)NCC(COP(=O)(O)OP(=O)(O)OC[C@H]1O[C@@H](n2cc(C)c(=O)[nH]c2=O)C[C@@H]1N=[N+]=[N-])OCC (stereo partly drawn) [Compound H, 3'-Azido-3-deoxythymidine-5'-diphosphate-D,L-3-octadecanamido-2-ethoxypropane]				IC50 [1]: 6600 nM; IC50 [5, 9]: 11 nM; D.S. (Differential selectivity) [5]: 600
O=c1[nH]cnc2c1ncn2[C@H]1CC[C@@H](CO)O1 [DDI, dideoxyinosine, reference compound]	> 100000	1700		

Reference: patent US5512671A, “Ether lipid-nucleoside covalent conjugates” (Wake Forest University, priority 1995, dated 1996)
